Assay results reported in US9907791B2, “Ron inhibitors for use in preventing and treating bone loss” (UNIVERSITY OF UTAH RESEARCH FOUNDATION, priority 2014, dated 2018).

Experiments:
[1] = system: DU4475 breast cancer cells; experiment: Intratibial DU4475 tumor-induced osteolysis; assay type: in vivo, mice; conditions: treatment began 3 days post tumor cell injection
Source text: All procedures involving mice and experimental protocols were approved by the Institutional Animal Care and Use Committee (IACUC) of the University of Utah. The RonTK−/− mice which reside on the FVB background, were crossed with NOD.SCID mice for an immune-compromised mouse model. As a control, wild-type FVB mice were also crossed with NOD.SCID mice. The STK−/− mice, which are on a C57BL/6 background, were compared to wild-type C57BL/6 mice as controls. Mice for all experiments were 6 to 8 weeks of age. For intratibial injections, 1×10^5 (PyMTor DU4475) or 3×10^5 (MDA-MB-231) tumor cells were resuspended in 10 μL matrigel and injected into the right tibia of anesthetized female FVB (PyMT) or NOD.SCID mice carrying various alleles of RON. Osteolysis was assessed by X-ray radiography. Dissected hindlimbs from mice sacrificed at the final time point in each experiment were placed in the Kodak In-vivo Multispectral Imaging System FX and exposed to X-ray radiography at 35 kV for 100 sec. Excess tumor tissue was removed from the bones prior to X-ray. Osteolytic lesions were quantified using Image J software (NCBI). All images were compared to the contralateral leg as an internal control.
For in vivo experiments, the OSI-296 inhibitor was dissolved in 40% Trappsol with 0.01 M HCl, and mice were treated at a concentration of 200 mg/kg daily by oral gavage. […]

[2] = In vivo bone labeling and histomorphometry; design: species or system mice; conditions: normal, uninjected animals
Protocol: To label bones, mice were intraperitoneally injected with 20 mg/kg of calcein (Sigma-Aldrich, St. Louis, Mo.) or 30 mg/kg of Alizarin Complexone (Sigma-Aldrich, St. Louis, Mo.) in a 2% sodium bicarbonate solution. Mice 6 to 8 months of age were labeled 8 days and 2 days prior to euthanasia, respectively. Tibia were fixed in 70% ethanol, embedded in methylmethacrylate and sectioned. Bone histomorphometry on H and E sections and bone labeled sections were performed as previously described (Parfitt, et al. Report of the ASBMR Histomorphometry Nomenclature Committee. J. Bone Miner. Res. 1987, 2, 595-610). Analysis of bone volume (BV/TV), and trabecular spacing (Tb. Sp.) were performed on the metaphyseal region of tibia sections stained with H and E. Bone formation rate (BFR) per bone surface (BS) and mineral apposition rate (MAR) of trabeculae were calculated within the metaphyseal region of the tibia. For all histomorphometry, three sections per mouse with 4 to 5 mice per group were analyzed. Analysis was performed using Bioquant Osteo software (Bioquant Image Analysis Corporation, Nashville, Tenn.).

## CCOc1ccn(-c2ccc(F)cc2)c(=O)c1C(=O)Nc1ccc(Oc2ccnc(N)c2Cl)c(F)c1 [ASLAN002]
[1]
  osteolysis from DU4475 cells: prevented osteolysis
[2]
  bone formation rate per total bone surface: not significant
  mineral apposition rate: not significant
